From patent US20250122166A1, “SUBSTITUTED N-((2-(2,6-DIOXOPIPERIDIN-3-YL)-1-OXOISOINDOLIN-4-YL)METHYL)BENZAMIDE ANALOGS AS MODULATORS OF CEREBLON PROTEIN” (ST. JUDE CHILDREN'S RESEARCH HOSPITAL, INC., priority 2021, published 2025)

Assays:
MOLM-13 cells = test: Cell proliferation assay (Cell Titer-Glo, 72 h); format: cell-based; conditions: Homo sapiens, 72 h incubation, * = cytostatic 50%
Protocol: MOLM-13 cell line was purchased from the Leibniz Institute DSMZ (ACC 554). The cells were cultured according to recommendations in RPMI 1640 cell culture media with 20% FBS (DSMZ). Exponentially growing MOLM-13 cells were plated at 1250 cells per well in Corning 8804BC white 384-well assay plates and incubated overnight at 37° C. in a humidified 5% CO2 incubator. Compounds were transferred to the assay plate from a dose-response plate using a Pintool on a Biomek FXP Laboratory Automation Workstation (Beckman Coulter). Cytotoxicity was determined following 72 hours of incubation using Promega Cell Titer Glo reagent according to the manufacturer's recommendation. Luminescence was measured on an Envision plate reader (Perkin-Elmer).
Compounds were screened in human cancer cell lines and each cell line was cultured in the complete medium recommended by the vendor and seeded in Corning 8804BC white 384-well assay plates at density of 1250 cells per well for MOLM-13 cells. After overnight incubation at 37° C. in a humidified 5% CO2 incubator, cells were treated with compounds in dose-response format using a Pintool on a Biomek FXP Laboratory Automation Workstation (Beckman Coulter). After 72h incubation, cell proliferation was assessed using Cell Titer-Glo (CTG) luminescent cell viability assay (Promega) according to the manufacturer's instruction. Luminescence signal was measured using an Envision plate reader (Perkin-Elmer).

6XHis-CRBN-DDB1 protein = 6XHis-CRBN-DDB1 protein (Homo sapiens (Human), UniProt Q96SW2); test: CRBN fluorescence polarization assay (competitive, Cy5-O-Len probe); format: binding; conditions: 6XHis-CRBN-DDB1 200 nM, Cy5-O-Len probe 30 nM, 1 hour; mean of three determinations; read-out: CRBN FP (IC50)
Protocol: In this competitive fluorescent polarization assay Cy5 conjugated lenalidomide analog (Cy5—O-Len)^1 was used as a fluorescent probe. 6XHis-CRBN-DDB1 protein (200 nM) and Cy5—O-Len probe (30 nM) were combined in 20 mM HEPES pH 7, 150 mM NaCl, 0.005% Tween-20 assay buffer. 20 μL of this assay cocktail was dispensed into wells of Corning 3821 black 384-well plates. Compounds were transferred to the assay plate from a dose-response plate using a Pintool on a Biomek FXP Laboratory Automation Workstation (Beckman Coulter). The plates were incubated in the dark for 1 hour at room temperature and then read on an Envision plate reader (PerkinElmer, Massachusetts, USA). IC50 values were determined using a proprietary software RISE (Robust Investigation of Screening Experiments), developed in house on the Pipeline Pilot platform (Biovia, v. 17.2.0). Data represent the mean of three independent determinations.

Row | EC50 (MOLM-13 cells) [nM] | IC50 (6XHis-CRBN-DDB1 protein) [nM] | SMILES
1 | > 10000 | 1000 to 10000 | O=C1CCC(N2Cc3c(CNC(=O)c4cc(F)ccc4F)cccc3C2=O)C(=O)N1 (centres unmarked) [Compound 37, N-((2-(2,6-dioxopiperidin-3-yl)-1-oxoisoindolin-4-yl)methyl)-2,5-difluorobenzamide]
2 | < 1000 | 1000 to 10000 | O=C1CCC(N2Cc3c(CNC(=O)c4ccccc4Cl)cccc3C2=O)C(=O)N1 (centres unmarked) [Compound 46, 2-chloro-N-((2-(2,6-dioxopiperidin-3-yl)-1-oxoisoindolin-4-yl)methyl)benzamide]
3 | < 1000 | < 1000 | O=C1CCC(N2Cc3c(CNC(=O)c4ccc(-c5ccc(Cl)cc5)o4)cccc3C2=O)C(=O)N1 (centres unmarked) [Compound 44, 5-(4-chlorophenyl)-N-((2-(2,6-dioxopiperidin-3-yl)-1-oxoisoindolin-4-yl)methyl)furan-2-carboxamide]
4 | < 1000 | < 1000 | O=C1CCC(N2Cc3c(CNC(=O)c4ccc(Cl)cc4F)cccc3C2=O)C(=O)N1 (centres unmarked) [Compound 36, 4-chloro-N-((2-(2,6-dioxopiperidin-3-yl)-1-oxoisoindolin-4-yl)methyl)-2-fluorobenzamide]
5 | 1000 to 10000 | 1000 to 10000 | O=C1CCC(N2Cc3c(CNC(=O)c4ccc5nc[nH]c5c4)cccc3C2=O)C(=O)N1 (centres unmarked) [Compound 42, N-((2-(2,6-dioxopiperidin-3-yl)-1-oxoisoindolin-4-yl)methyl)-1H-benzo[d]imidazole-6-carboxamide]
6 | > 10000 | 1000 to 10000 | O=C(Cc1ccccc1Br)NCc1cccc2c1CN(C1CCC(=O)NC1=O)C2=O (centres unmarked) [Compound 41, 2-(2-bromophenyl)-N-((2-(2,6-dioxopiperidin-3-yl)-1-oxoisoindolin-4-yl)methyl)acetamide]
7 | > 10000 | < 1000 | O=C1CCC(N2Cc3c(CNC(=O)c4cccc5[nH]ccc45)cccc3C2=O)C(=O)N1 (centres unmarked) [Compound 39, N-((2-(2,6-dioxopiperidin-3-yl)-1-oxoisoindolin-4-yl)methyl)-1H-indole-4-carboxamide]
8 | < 1000 | < 1000 | O=C(Cc1ccc(O)cc1)NCc1cccc2c1CN(C1CCC(=O)NC1=O)C2=O (centres unmarked) [Compound 40, N-((2-(2,6-dioxopiperidin-3-yl)-1-oxoisoindolin-4-yl)methyl)-2-(4-hydroxyphenyl)acetamide]
9 | < 1000 | 1000 to 10000 | O=C1CCC(N2Cc3c(CNC(=O)c4ccccc4Nc4cccc(C(F)(F)F)c4)cccc3C2=O)C(=O)N1 (centres unmarked) [Compound 43, N-((2-(2,6-dioxopiperidin-3-yl)-1-oxoisoindolin-4-yl)methyl)-2-((3-(trifluoromethyl)phenyl)amino)benzamide]
10 | < 1000 | < 1000 | O=C1CCC(N2Cc3c(CNC(=O)c4cccc5cc[nH]c45)cccc3C2=O)C(=O)N1 (centres unmarked) [Compound 38, N-((2-(2,6-dioxopiperidin-3-yl)-1-oxoisoindolin-4-yl)methyl)-1H-indole-7-carboxamide]

Second part, the compound before the results:

Row | SMILES | EC50 (MOLM-13 cells) [nM] | IC50 (6XHis-CRBN-DDB1 protein) [nM]
11 | O=C1CCC(N2Cc3c(CNC(=O)c4ccccc4F)cccc3C2=O)C(=O)N1 (centres unmarked) [Compound 31, N-((2-(2,6-dioxopiperidin-3-yl)-1-oxoisoindolin-4-yl)methyl)-2-fluorobenzamide] | > 10000 | 1000 to 10000
12 | N#Cc1cccc(C(=O)NCc2cccc3c2CN(C2CCC(=O)NC2=O)C3=O)c1 (centres unmarked) [Compound 26, 3-cyano-N-((2-(2,6-dioxopiperidin-3-yl)-1-oxoisoindolin-4-yl)methyl)benzamide] | < 1000 | < 1000
13 | O=C1CCC(N2Cc3c(CNC(=O)c4ccc(Cl)c(C(F)(F)F)c4)cccc3C2=O)C(=O)N1 (centres unmarked) [Compound 21, 4-chloro-N-((2-(2,6-dioxopiperidin-3-yl)-1-oxoisoindolin-4-yl)methyl)-3-(trifluoromethyl)benzamide] | < 1000 | –
14 | O=C1CCC(N2Cc3c(CNC(=O)c4ccc(Cl)cc4)cccc3C2=O)C(=O)N1 (centres unmarked) [Compound 5, 4-chloro-N-((2-(2,6-dioxopiperidin-3-yl)-1-oxoisoindolin-4-yl)methyl)benzamide] | < 1000 | 1000 to 10000
15 | O=C1CCC(N2Cc3c(CNC(=O)c4ccc(C(F)(F)F)cc4)cccc3C2=O)C(=O)N1 (centres unmarked) [Compound 13, N-((2-(2,6-dioxopiperidin-3-yl)-1-oxoisoindolin-4-yl)methyl)-4-(trifluoromethyl)benzamide] | < 1000 | 1000 to 10000
16 | O=C1CCC(N2Cc3c(CNC(=O)c4ccncc4)cccc3C2=O)C(=O)N1 (centres unmarked) [Compound 6, N-((2-(2,6-dioxopiperidin-3-yl)-1-oxoisoindolin-4-yl)methyl)isonicotinamide] | > 10000 | –
17 | CCCc1ccc(C(=O)NCc2cccc3c2CN(C2CCC(=O)NC2=O)C3=O)cc1 (centres unmarked) [Compound 30, N-((2-(2,6-dioxopiperidin-3-yl)-1-oxoisoindolin-4-yl)methyl)-4-propylbenzamide] | < 1000 | < 1000
18 | O=C1CCC(N2Cc3c(CNC(=O)c4cccc(OC(F)(F)F)c4)cccc3C2=O)C(=O)N1 (centres unmarked) [Compound 20, N-((2-(2,6-dioxopiperidin-3-yl)-1-oxoisoindolin-4-yl)methyl)-3-(trifluoromethoxy)benzamide] | < 1000 | 1000 to 10000
19 | O=C1CCC(N2Cc3c(CNC(=O)c4cccs4)cccc3C2=O)C(=O)N1 (centres unmarked) [Compound 27, N-((2-(2,6-dioxopiperidin-3-yl)-1-oxoisoindolin-4-yl)methyl)thiophene-2-carboxamide] | > 10000 | < 1000
20 | O=C1CCC(N2Cc3c(CNC(=O)c4ccc(Br)cc4)cccc3C2=O)C(=O)N1 (centres unmarked) [Compound 18, 4-bromo-N-((2-(2,6-dioxopiperidin-3-yl)-1-oxoisoindolin-4-yl)methyl)benzamide] | < 1000 | –
21 | Cc1ccc(C(=O)NCc2cccc3c2CN(C2CCC(=O)NC2=O)C3=O)cc1 (centres unmarked) [Compound 11, N-((2-(2,6-dioxopiperidin-3-yl)-1-oxoisoindolin-4-yl)methyl)-4-methylbenzamide] | 1000 to 10000 | –
22 | O=C1CCC(N2Cc3c(CNC(=O)c4cccc(C(F)(F)F)c4)cccc3C2=O)C(=O)N1 (centres unmarked) [Compound 12, N-((2-(2,6-dioxopiperidin-3-yl)-1-oxoisoindolin-4-yl)methyl)-3-(trifluoromethyl)benzamide] | < 1000 | 1000 to 10000
23 | COc1ccccc1C(=O)NCc1cccc2c1CN(C1CCC(=O)NC1=O)C2=O (centres unmarked) [Compound 29, N-((2-(2,6-dioxopiperidin-3-yl)-1-oxoisoindolin-4-yl)methyl)-2-methoxybenzamide] | < 1000 | 1000 to 10000
24 | O=C1CCC(N2Cc3c(CNC(=O)c4ccc(F)cc4)cccc3C2=O)C(=O)N1 (centres unmarked) [Compound 7, N-((2-(2,6-dioxopiperidin-3-yl)-1-oxoisoindolin-4-yl)methyl)-4-fluorobenzamide] | < 1000 | 1000 to 10000
25 | O=C1CCC(N2Cc3c(CNC(=O)c4ccco4)cccc3C2=O)C(=O)N1 (centres unmarked) [Compound 2, N-((2-(2,6-dioxopiperidin-3-yl)-1-oxoisoindolin-4-yl)methyl)furan-2-carboxamide] | > 10000 | –
26 | O=C1CCC(N2Cc3c(CNC(=O)c4cccnc4)cccc3C2=O)C(=O)N1 (centres unmarked) [Compound 8, N-((2-(2,6-dioxopiperidin-3-yl)-1-oxoisoindolin-4-yl)methyl)nicotinamide] | > 10000 | –
27 | Cc1ccc(F)cc1C(=O)NCc1cccc2c1CN(C1CCC(=O)NC1=O)C2=O (centres unmarked) [Compound 32, N-((2-(2,6-dioxopiperidin-3-yl)-1-oxoisoindolin-4-yl)methyl)-5-fluoro-2-methylbenzamide] | > 10000 | 1000 to 10000
28 | O=C1CCC(N2Cc3c(CNC(=O)c4ccc(C(F)F)cc4)cccc3C2=O)C(=O)N1 (centres unmarked) [Compound 24, 4-(difluoromethyl)-N-((2-(2,6-dioxopiperidin-3-yl)-1-oxoisoindolin-4-yl)methyl)benzamide] | < 1000 | 1000 to 10000
29 | O=C1CCC(N2Cc3c(CNC(=O)c4ccccc4)cccc3C2=O)C(=O)N1 (centres unmarked) [Compound 10, N-((2-(2,6-dioxopiperidin-3-yl)-1-oxoisoindolin-4-yl)methyl)benzamide] | 1000 to 10000 | –
30 | O=C1CCC(N2Cc3c(CNC(=O)c4ccc(Cl)cc4Cl)cccc3C2=O)C(=O)N1 (centres unmarked) [Compound 28, 2,4-dichloro-N-((2-(2,6-dioxopiperidin-3-yl)-1-oxoisoindolin-4-yl)methyl)benzamide] | > 10000 | –
31 | O=C1CCC(N2Cc3c(CNC(=O)c4ccc(Cl)c(Cl)c4)cccc3C2=O)C(=O)N1 (centres unmarked) [Compound 14, 3,4-dichloro-N-((2-(2,6-dioxopiperidin-3-yl)-1-oxoisoindolin-4-yl)methyl)benzamide] | < 1000 | –
